How the values were obtained:
[1] = target: T1, human recombinant CCR4 receptor (Homo sapiens, UniProt P51679); assay: FMAT whole cell binding assay (FB-MDC binding to CHO-K1 cells expressing CCR4); details: inhibition of FB-MDC binding to CHO-K1 cells expressing human recombinant CCR4; two hours incubation at room temperature; mean
T1 construct: Brussels, Belgium; host or cells: CHO-K1
T1 sequence (P51679 1-360): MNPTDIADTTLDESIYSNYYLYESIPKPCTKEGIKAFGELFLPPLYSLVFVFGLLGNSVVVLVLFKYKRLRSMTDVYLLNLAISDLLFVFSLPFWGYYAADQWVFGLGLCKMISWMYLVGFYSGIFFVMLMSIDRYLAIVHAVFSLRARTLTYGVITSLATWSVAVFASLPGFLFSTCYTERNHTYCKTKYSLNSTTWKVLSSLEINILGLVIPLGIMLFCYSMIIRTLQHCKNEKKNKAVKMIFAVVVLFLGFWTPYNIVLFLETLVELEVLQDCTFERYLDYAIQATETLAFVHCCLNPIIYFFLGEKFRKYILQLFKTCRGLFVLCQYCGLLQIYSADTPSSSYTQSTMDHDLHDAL
Experimental: FMAT Whole Cell Binding Assay
CHO-K1 cells stably expressing the human recombinant CCR4 receptor (Euroscreen; Brussels, Belgium) were cultured in NUT.MIX.F—12(HAM) medium with glutamax-1, containing 10% (v/v) foetal bovine serum and 400 μg ml^−1 geneticin
Cells were harvested at approximately 70% confluence by treatment with a cell dissociation buffer, and seeded at 5×10^3 cells/100 μl culture medium into wells of a black Costar clear-bottomed 96-well microtitre plates. Plates were incubated overnight at 37° C. in 5% CO2 and used the following day.
Before use, the cell plates were washed twice with 100 μl Hanks balanced salt solution (HBSS). To each well was then added 65 μl of HBSS, 10 μL of 10% DMSO in HBSS±test compound and then 25 μL of 2.8 nM FB-MDC (Applied Biosystems). This fluorescent probe was prepared from a 10 μM stock in 0.08% (v/v) TFA/16% (v/v) acetonitrile, diluted into HBSS.
After two hours incubation in the dark at room temperature, the plates were analysed in an FMAT8100 reader (Applied Biosystems) to measure fluorescence that was associated with binding of FB-MDC to the cells. Compound activity was determined as an pIC50 [log(concentration of compound that results in 50% inhibition)], comparing fluorescence in control and background wells.

| Structure (SMILES) | melting point [°C] | IC50 [1] [nM] |
| --- | --- | --- |
| COC(=O)[C@@H](N)CSc1nc(OC)c(NS(=O)(=O)c2cccc(Cl)c2Cl)nc1C | 164 to 168 |  |
| COC(=O)[C@@H](N)CSc1cnc(NS(=O)(=O)c2cccc(Cl)c2Cl)c(OC)n1 [Example 2, S-[5[[(2,3-Dichlorophenyl)sulfonyl]amino]-6-methoxypyrazinyl]-L-cysteine, methyl ester] | 170 to 174 |  |
| COc1nc(SC[C@H](N)C(=O)O)cnc1NS(=O)(=O)c1cccc(Cl)c1Cl [Example 3, S-[5-[[(2,3-Dichlorophenyl)sulfonyl]amino]-6-methoxypyrazinyl]-L-cysteine] | 180 to 190 |  |
| COc1nc(SC[C@H](N)C(N)=O)cnc1NS(=O)(=O)c1cccc(Cl)c1Cl [Example 4, (2R)-2-Amino-3-[[5-[[(2,3-dichlorophenyl)sulfonyl]amino]-6-methoxypyrazinyl]thio]propanamide] | 148 to 152 | 631 |
| CNC(=O)[C@@H](N)CSc1cnc(NS(=O)(=O)c2cccc(Cl)c2Cl)c(OC)n1 [Example 5, (2R)-2-Amino-3-[[5-[[(2,3-dichlorophenyl)sulfonyl]amino]-6-methoxypyrazinyl]thio]-N-methyl-propanamide] | 160 to 164 |  |
| COc1nc(SC[C@H](N)C(=O)N(C)C)cnc1NS(=O)(=O)c1cccc(Cl)c1Cl [Example 6, (2R)-2-Amino-3-[[5-[[(2,3-dichlorophenyl)sulfonyl]amino]-6-methoxypyrazinyl]thio]-N,N-dimethylpropanamide] | 187 to 190 |  |
| COC(=O)[C@@H](N)CSc1nc(OC)c(NS(=O)(=O)c2cccc(Cl)c2Cl)nc1Cl [Example 8, S-[3-Chloro-5-[[(2,3-dichlorophenyl)sulfonyl]amino]-6-methoxypyrazinyl]-L-cysteine, methyl ester] | 170 to 173 |  |
| COc1nc(SC[C@H](N)C(=O)O)c(Cl)nc1NS(=O)(=O)c1cccc(Cl)c1Cl [Example 9, S-[3-Chloro-5[[(2,3-dichlorophenyl)sulfonyl]amino]-6-methoxypyrazinyl]-L-cysteine] | 170 to 173 |  |
| COc1nc(SC[C@H](N)CO)c(Cl)nc1NS(=O)(=O)c1cccc(Cl)c1Cl [Example 10, N-[5-[[(2R)-2-Amino-3-hydroxypropyl]thio]-6-chloro-3-methoxypyrazinyl]-2,3-dichlorobenzenesulfonamide] | 255 to 256 |  |
| COc1nc(SCC(O)c2nccs2)cnc1NS(=O)(=O)c1cccc(Cl)c1Cl (centres unmarked) [Example 15, 2,3-Dichloro-N-[5-[[2-hydroxy-2-(2-thiazolyl)ethyl]thio]-3-methoxypyrazinyl]-benzenesulfonamide] |  | 398 |
| COc1nc(SCC(O)CO)cnc1NS(=O)(=O)c1cccc(Cl)c1Cl (centres unmarked) [Example 19, 2,3-Dichloro-N-[5-[(2,3-dihydroxypropyl)thio]-3-methoxypyrazinyl]benzenesulfonamide] | 136 to 138 |  |
| COc1nc(SCC(O)c2ccccc2)cnc1NS(=O)(=O)c1cccc(Cl)c1Cl (centres unmarked) [Example 20, 2,3-Dichloro-N-[5-[(2-hydroxy-2-phenylethyl)thio]-3-methoxypyrazinyl]benzenesulfonamide] | 141 to 143 |  |

Continued, values first:

| melting point [°C] | IC50 [1] [nM] | Structure (SMILES) |
| --- | --- | --- |
| 188 to 190 |  | COc1nc(SCC(O)c2cccnc2)cnc1NS(=O)(=O)c1cccc(Cl)c1Cl (centres unmarked) [Example 21, 2,3-Dichloro-N-[5-[[2-hydroxy-2-(3-pyridinyl)ethyl]thio]-3-methoxypyrazinyl]benzenesulfonamide] |
| 175 to 178 |  | COc1nc(SCC(N)c2cccnc2)cnc1NS(=O)(=O)c1cccc(Cl)c1Cl (centres unmarked) [Example 22, N-[5-[[2-Amino-2-(3-pyridinyl)ethyl]thio]-3-methoxypyrazinyl]-2,3-dichloro benzenesulfonamide] |
| 176 to 177 |  | COc1nc(SCC(O)c2ccncc2)cnc1NS(=O)(=O)c1cccc(Cl)c1Cl (centres unmarked) [Example 23, 2,3-Dichloro-N-[5-[[2-hydroxy-2-(4-pyridinyl)ethyl]thio]-3-methoxypyrazinyl]benzenesulfonamide] |
| 143 to 145 |  | COc1nc(SCC(O)c2ccccn2)cnc1NS(=O)(=O)c1cccc(Cl)c1Cl (centres unmarked) [Example 24, 2,3-Dichloro-N-[5-[[2-hydroxy-2-(2-pyridinyl)ethyl]thio]-3-methoxypyrazinyl]benzenesulfonamide] |
| 88 to 90 |  | COC(=O)[C@@H](O)CSc1cnc(NS(=O)(=O)c2cccc(Cl)c2Cl)c(OC)n1 [Example 25, 3-[[5[[(2,3-Dichlorophenyl)sulfonyl]amino]-6-methoxypyrazinyl]thio]-(2R)-2-hydroxypropanoic acid, methyl ester] |
| 172 to 174 |  | COc1nc(SCC(N)c2ccccn2)cnc1NS(=O)(=O)c1cccc(Cl)c1Cl (centres unmarked) [Example 26, N-[5-[[2-Amino-2-(2-pyridinyl)ethyl]thio]-3-methoxypyrazinyl]-2,3-dichlorobenzenesulfonamide] |
| 187 to 189 |  | COc1nc(SCC(N)c2nccn2C)cnc1NS(=O)(=O)c1cccc(Cl)c1Cl (centres unmarked) [Example 27, N-[5-[[2-Amino-2-(1-methyl-1H-imidazol-2-yl)ethyl]thio]-3-methoxypyrazinyl]-2,3-dichlorobenzenesulfonamide] |
| 150 to 155 |  | CNC(=O)[C@@H](N)CSc1nc(OC)c(NS(=O)(=O)c2cccc(Cl)c2Cl)nc1Cl [Example 28, (2R)-2-Amino-3-[[3-chloro-5-[[(2,3-dichlorophenyl)sulfonyl]amino]-6-methoxypyrazinyl]thio]-N-methylpropanamide] |
| 68 to 80 |  | CNC(=O)[C@@H](N)CSc1nc(OC)c(NS(=O)(=O)c2cccc(Cl)c2Cl)nc1C [Example 29, (2R)-2-Amino-3-[[5[[(2,3-dichlorophenyl)sulfonyl]amino]methoxy-3-methylpyrazinyl]thio]-N-methylpropanamide] |
| 168 to 169 |  | COc1nc(SCC(N)c2nccs2)cnc1NS(=O)(=O)c1cccc(Cl)c1Cl (centres unmarked) [Example 30, N-[5-[[2-Amino-2-(2-thiazolyl)ethyl]thio]-3-methoxypyrazinyl]-2,3-dichlorobenzenesulfonamide] |

— patent US20060122195A1, “Sulphonamide compounds that modulate chemokine receptor activity (ccr4)” (priority 2003, published 2006)
